Test results from patent US20070015827A1, “Methods and compositions for treating ophthalmic conditions via serum retinol, serum retinol binding protein (RBP), and/or serum retinol-RBP modulation” (Sytera, Inc., priority 2005, published 2007).
Entries after “also recorded” stand apart in the source; their conditions may differ.

What was measured:
[1] = biological target: RBP (Homo sapiens, UniProt P02753); experiment: Competition binding assay RBP-retinol/HPR by fluorescence quenching
Source text: Based upon these findings, we sought to further explore the mechanism(s) of retinol reduction during HPR treatment. A tenable hypothesis is that HPR may displace retinol by competing at the retinol binding site on RBP. […] Therefore, one can measure displacement of retinol from the RBP holoprotein by observing decreases in both protein (340 nm) and retinol (470 nm) fluorescence. We performed a competition binding assay using RBP-retinol/HPR concentrations which were similar to those determined from the 14 day trial at 20 mg/kg HPR described above. […] In the control assays, decreases in retinol fluorescence were associated with concomitant increases in protein fluorescence, see FIG. 3a. This effect was determined to be due to temperature effects as the dissociation constant of RBP-retinol increases (decreased affinity) with […] at 37C. […] Increases of HPR beyond equimolar amounts relative to RBP holoprotein (e.g., 2.0 μM HPR to 1.0 μM RBP) will produce a population of RBP which is largely associated with HPR.

[2] = tested on: abca4 −/− mice; experiment: HPR and retinaldehyde content after 7 days, dark- and light-adapted; type: in vivo, mouse; conditions: HPR 10 mg/kg/day
Description: The effect of HPR on visual chromophore biosynthesis was examined in a separate study in which a […] of HPR (10 mg/kg/day) was administered to abca4 −/− mice over a 7-day period.

[3] = biological target: interaction of TTR with RBP (Homo sapiens, UniProt P02753); conditions: in vitro; cited from earlier work
[4] = cited from earlier work
[5] = Ocular retinoid content after 7 days of HPR (HPLC); type: in vivo, mouse; conditions: mouse, RPE (retinal pigment epithelium), intraperitoneal, HPR 5-20 mg/kg/day i.p. in DMSO, dose-dependent, read-out: accumulation of HPR within the RPE
Description: (§1) In one study, wild-type mice were given varied doses of HPR (5-20 mg/kg/day, i.p. in DMSO) for 7 days. Control mice received only DMSO. Mice were maintained on a 12 h/12 h light/dark cycle throughout the treatment period. At the end of the study, the ocular retinoid content was determined by high-performance liquid chromatography (HPLC). Light-adapted, rather than dark-adapted, retinoid profiles were obtained so that a measure of retinoids could be obtained while the visual cycle was actively regenerating chromophore. […] This finding is in sharp contrast to data obtained from analysis of mice treated with 13-cis retinoic acid. […] Reduced 11cRDH activity would lead to reduced levels of 11-cis retinal and accumulation of 11-cis retinol. Free 11-cis retinol would be rapidly esterified via LRAT activity resulting in increased 11-cis retinyl esters. This effect of 13-cis retinoic acid on retinoid biosynthesis was also observed in rats in Sieving P A, et al., Proc Natl Acad Sci USA. 2001; 98(4): 1835-40.

[6] = tested on: wild-type mice; experiment: Ocular retinoid content after 7 days of HPR (HPLC); type: in vivo, mouse; conditions: HPR 5-20 mg/kg/day i.p.
Description: as §1

[7] = tested on: abca4 −/− mice; experiment: A2E levels after withdrawal of chronic treatment; type: in vivo, mouse; conditions: chronic treatment (HPR 10 mg/kg i.p.) stopped after 28 days; measured 12, 28 and 42 days later
Description: Latent Effects of HPR on Arresting A2E Accumulation —One feature identified during the HPR trials was a therapeutic latency effect following withdrawal of HPR. In these studies, chronic treatment of abca4 −/− mice (10 mg HPR/kg, i.p.) was stopped after 28 days. A2E levels were then measured 12, 28 and 42 days following the final HPR dose. […] This effect was not observed in animals treated with 13-cis retinoic acid, a result that may be due to the capacity of RPE cells to adapt to, and maintain, low steady-state retinoid levels. […] These findings indicate that high steady-state levels of competitive inhibitors such as 13-cis retinoic acid must be maintained for therapeutic efficacy.

[8] = tested on: abcr null mutant mice; experiment: Lipofuscin autofluorescence in RPE and light microscopy of retina; type: in vivo, mouse
[9] = in vivo; cited from earlier work
[10] = tested on: abca4 null mutant mouse; experiment: Effect of HPR on serum retinol, 14 days (Example 11); type: in vivo
Description: Initial studies began by examining the effect of HPR on serum retinol. Animals were divided into three groups and given either DMSO, 10 mg/kg HPR, or 20 mg/kg HPR for 14 days. At the end of the study period, blood was collected from the animals, sera were prepared and an acetonitrile extract of the serum was analyzed by reverse phase LC/MS. UV-visible spectral and mass/charge analyses were performed to confirm the identity of the eluted peaks. Sample chromatograms obtained from these analyses are shown: FIG. 1a.—extract from an abca4 null mutant mouse receiving HPR vehicle, DMSO; FIG. 1b.-10 mg/kg HPR; FIG. 1c.-20 mg/kg HPR. […] For 20 mg/kg HPR, serum retinol is decreased 72%, see FIG. 7. The steady state concentrations of retinol and HPR in serum (at 20 mg/kg HPR) were determined to be 2.11 μM and 1.75 μM, respectively.

**Q.** Which “competitive binding of HPR to RBP” value [1] does the source give for `CC1=C(/C=C/C(C)=C/C=C/C(C)=C/C(=O)Nc2ccc(O)cc2)C(C)(C)CCC1` [HPR, N-(4-hydroxyphenyl)retinamide] here?
**A.** dose-dependent and saturable

**Q.** What about the “displacement of retinol from RBP-retinol holoprotein” value ([1]; physiological temperature (37C), protein (340 nm) and retinol (470 nm) fluorescence) of the same molecule?
**A.** efficiently displaces retinol

**Q.** And the “effect on steady-state retinal levels or regeneration of visual chromophore” value [2]?
**A.** essentially no effect

**Q.** And the “effect on interaction of TTR with RBP” value [3]?
**A.** interferes with the normal interaction of TTR with RBP

**Q.** And the observed toxicities ([4]; 4800 mg/m^2 dose, three times daily)?
**A.** minimal

**Q.** And the “plasma concentration after high fat meals versus carbohydrate meals” value ([4]; human, in vivo)?
**A.** three times greater

**Q.** And the concentration at 7 days [5]?
**A.** 4 to 6 µM

**Q.** What about the “differences in light-adapted retinoid levels” value [6] of the same molecule?
**A.** no significant differences

**Q.** And the “A2E levels after withdrawal (therapeutic latency effect)” value [7]?
**A.** remained persistently low for several weeks

**Q.** What about the “lipofuscin autofluorescence in the RPE” value ([8]; HPR daily for 28 days) of the same molecule?
**A.** significantly reduces; also recorded: less than that of an age-matched wild-type animal

**Q.** What about the “retinal morphology (light microscopy)” value ([8]; HPR-treated animals) of the same molecule?
**A.** no aberrant morphology

**Q.** And the “effect on serum retinol and RBP” value [9]?
**A.** reductions in serum retinol and RBP; also recorded: profound reductions

**Q.** And the “decrease of serum all-trans retinol” value ([10]; 10 mg/kg HPR, 14 days, vs DMSO)?
**A.** 40%

**Q.** And the “decrease of serum retinol” value ([10]; 20 mg/kg HPR, 14 days, vs DMSO)?
**A.** 72%

**Q.** What about the “steady state concentration of retinol in serum” value ([10]; at 20 mg/kg HPR) of the same molecule?
**A.** 2.11 µM
